# Measured values as given in patent publication US4290954A, “Tetrahydroxanthone derivatives” (Kowa Company Limited, priority 1978, dated 1981).
# Assays:
# [1] = system: passive cutaneous anaphylaxis (PCA); test: Inhibitory effects on passive cutaneous anaphylaxis (PCA); assay type: in vivo, male SD rat; settings: 100 mg/kg orally one hour prior to the antigen challenge, rat; for inhibition in vivo at 100 mg/kg: po, 1 h, read-out: P C A (p.o), degree of inhibition
# Protocol: A male SD rat weighing about 300 g was used, whose hair on the back had been shaved with an electric clipper. The back skin was passively sensitized by intradermal injection of 0.1 ml of anti-OA mouse serum (IgE like antibody) which had been diluted to three concentration levels. 4 Hours later, the rat was challenged by intravenous injection of an antigen solution of 2 ml/kg containing OA (1 mg/ml) and Evans blue (0.5 mg/ml). 30 Minutes after the antigen challenge, the rat was decapitated and exsanguinated. Then, the skin was reflected, and the area of blue spots was measured in milimeters by multiplying the longer diameter by the shorter diameter. […] The degree of inhibition of the test compound is expressed by the following notations.
# ±: 0-25% inhibition with no significant difference from the control
# ±: 25-50% inhibition with a significant difference from the control
# ++: 50-75% inhibition with a significant difference from the control
# +++: 75-100% inhibition with a significant difference from the control
# Each test pharmaceutical compound was suspended in a 0.2% carboxymethylcellulose solution and administered orally at a rate of 100 mg/kg one hour prior to the antigen challenge. Disodium cromoglycate which was known as an anti-allergic drug was employed as a control or reference substance.
# [2] = system: peritoneal cells; test: Inhibitory effects on histamine release (sensitized rat peritoneal cells, OA challenge); assay type: cell-based, male Sprague-Dawley (SD) rat; settings: 10 min at 37° C., OA added simultaneously; for minimal effective concentration: 10 min, read-out: Inhibition of Histamine release (lowest effective concentration to inhibit the release of histamine)
# Protocol: An anti-ovalbumin (OA) mouse serum (IgE like antibody, PCA titer; 1:400-1:800) was diluted 20 times with physiological saline. A male Sprague-Dawley (SD) rat weighing 300-400 g was passively sensitized by intraperitoneal administration of 5 ml of the diluted serum. 48 Hours later, the rat was decapitated and exsanguinated. 10 ml of Tyrode's solution containing 5 units/ml of heparin was then injected into the peritoneal cavity of the rat. After mixing the solution by gentle massage for 60 seconds, the fluid in the peritoneal cavity was collected and then centrifuged for 5 minutes at 120×g to harvest peritoneal cells. The peritoneal cells were suspended in Tyrode's solution so as to adjust the concentration of 10^6 cells/ml. After preincubating 1.6 ml of the cell suspension for 4 minutes at 37° C., 0.2 ml of each test compound solution and 0.2 ml of OA solution (100 μg/ml) were added simultaneously and thereafter incubated for 10 minutes at 37° C. The reaction was terminated by ice-cooling the mixture, and the thus incubated solution was centrifuged for 5 minutes at 670×g to divide the same into a cell pellet and a supernatant liquid phase. The histamine content in each of the phases was determined by the fluorometric method of Grant et al*. Each tested pharmaceutical compound was used by dissolving it in Tyrode's solution prior to its use.
# *Grant, J. A., Settle, L., Whorton, E. B. and Dupree, E., Complement-mediated releast of histamine from human basophils: II. Biochemical characterization of the reaction, J. Immunol., 117, 450 (1976)
# The results of tests (1) and (2) are shown in Table 1 in which each figure in the "Inhibition of Histamine Release" column denotes the lowest effective concentration to inhibit the release of histamine.
# [3] = Acute toxic test (LD50, up-down method); settings: in vivo; oral, male SD rat, 72 hours after administration
# Protocol: Each of the compounds shown in Table 2 was suspended in a 0.5% carboxymethylcellulose solution and administered orally to a male SD rat (5 weeks old). Upon the lapse of 72 hours after the administration, the LD50 value was determined by the up-down method.
Compound,inhibition in vivo at 100 mg/kg [1],minimal effective concentration [2],other results
CC1CCc2oc3ccc(C(=O)Nc4ccccc4C(=O)O)cc3c(=O)c2C1 (stereo not drawn),0 to 25%,0.3 µg/mL,–
O=C(OC1CCc2oc3ccc(-c4nnn[nH]4)cc3c(=O)c2C1)c1ccccc1 (stereo not drawn),–,10 µg/mL,–
"CC(C)(C)C1CCc2oc3ccc(C(=O)Nc4nnn[nH]4)cc3c(=O)c2C1 (stereo not drawn) [2-CONHTz 7-tert.Bu, 7-(t-butyl)-5,6,7,8-tetrahydro-N-(5'-tetrazolyl)-9-oxo-xanthene-2-carboxylic acid amide]",0 to 25%,1 µg/mL,–
"Cc1cc(C(=O)O)cc2c(=O)c3c(oc12)CCCC3 [2-COOH 4-CH3, 4-methyl-5,6,7,8-tetrahydro-9-oxo-xanthene-2-carboxylic acid]",50 to 75%,–,–
"CC1CCc2oc3ccc(C(=O)O)cc3c(=O)c2C1 (stereo not drawn) [2-COOH 7-CH3, 7-methyl-5,6,7,8-tetrahydro-9-oxo-xanthene-2-carboxylic acid]",–,0.3 µg/mL,–
"CC(C)(C)C1CCc2oc3ccc(C(=O)O)cc3c(=O)c2C1 (stereo not drawn) [2-COOH 7-tert.Bu, 7-(t-butyl)-5,6,7,8-tetrahydro-9-oxo-xanthene-2-carboxylic acid]",75 to 100%,0.3 µg/mL,–
"Cc1cc(-c2nnn[nH]2)cc2c(=O)c3c(oc12)CCCC3 [2-Tz 4-CH3, 4-methyl-5,6,7,8-tetrahydro-2-(5'-tetrazolyl)-9-xanthone]",–,0.1 µg/mL,–
"CC1CCc2oc3ccc(-c4nn[nH]n4)cc3c(=O)c2C1 (stereo not drawn) [2-Tz 7-CH3, 2-methyl-1,2,3,4-tetrahydro-7-(5'tetrazolyl)-9-xanthone]",–,–,"P C A (p.o), degree of inhibition [1]: ± (0-25% inhibition with no significant difference from the control); Inhibition of Histamine release (lowest effective concentration to inhibit the release of histamine) [2]: 0.01 µg/mL"
O=C(O)C1CCc2oc3ccc(-c4nnn[nH]4)cc3c(=O)c2C1 (stereo not drawn) [2-Tz 7-COOH],–,0.01 µg/mL,–
"CC(C)(C)C1CCc2oc3ccc(-c4nnn[nH]4)cc3c(=O)c2C1 (stereo not drawn) [2-Tz 7-tert.Bu, 2-(t-butyl)-1,2,3,4-tetrahydro-7-(5'-tetrazolyl)-9-xanthone]",–,0.1 µg/mL,–
Cc1ccc2c(=O)c3c(oc2c1)CCC(C(=O)Nc1nnn[nH]1)C3 (stereo not drawn) [3-CH3 7-CONHTz],0 to 25%,3 µg/mL,–
"Cc1ccc2c(=O)c3c(oc2c1)CCC(c1nnn[nH]1)C3 (stereo not drawn) [3-CH3 7-Tz, 6-Methyl-1,2,3,4-tetrahydro-2-(5'-tetrazolyl)-9-oxo-xanthene]",–,1 µg/mL,–
"CC1CCc2oc3cc(-c4nnn[nH]4)ccc3c(=O)c2C1 (stereo not drawn) [3-Tz 7-CH3, 2-methyl-1,2,3,4-tetrahydro-6-(5'-tetrazolyl)-9-xanthone]",50 to 75%,–,–
"O=C(O)c1cc(=O)c2c(OCC(O)COc3cccc4oc(C(=O)O)cc(=O)c34)cccc2o1 [Disodium cromoglycate, reference compound]",0 to 25%,3 µg/mL,–
"O=C(Nc1nnn[nH]1)c1ccc2oc3c(c(=O)c2c1)CCCC3 [Example 2-CONHTz, 5,6,7,8-tetrahydro-N-(5'-tetrazolyl)-9-oxo-xanthene-2-carboxylic acid amide]",–,0.1 µg/mL,–
"O=C(O)c1ccc2oc3c(c(=O)c2c1)CCCC3 [Example 2-COOH, 5,6,7,8-Tetrahydro-9-oxo-xanthene-2-carboxylic acid]",–,10 µg/mL,LD50 at 72 h [3]: > 4000 mg/kg
"O=c1c2c(oc3ccc(-c4nnn[nH]4)cc13)CCCC2 [Example 2-Tz, 1,2,3,4-Tetrahydro-7-(5'-tetrazolyl)-9-xanthone]",–,0.01 µg/mL,LD50 at 72 h [3]: > 4000 mg/kg
"O=C(O)c1ccc2c(=O)c3c(oc2c1)CCCC3 [Example 3-COOH, 5,6,7,8-tetrahydro-9-oxo-xanthene-3-carboxylic acid]",–,10 µg/mL,–
"O=c1c2c(oc3cc(-c4nnn[nH]4)ccc13)CCCC2 [Example 3-Tz, 5,6,7,8-tetrahydro-3-(5'-tetrazolyl)-9-xanthone]",50 to 75%,0.3 µg/mL,–
Cc1ccc2c(=O)c3c(oc2c1)CCC(C(=O)Nc1ccccc1C(=O)O)C3 (stereo not drawn) [drawing 19],–,3 µg/mL,–
O=C(Nc1ccccc1C(=O)O)c1ccc2oc3c(c(=O)c2c1)CCCC3 [drawing 20],–,1 µg/mL,"P C A (p.o), degree of inhibition [1]: + +"
O=C(Nc1ccccc1C(=O)O)c1ccc2oc3c(c(=O)c2c1)CCCC3 [drawing 25],–,–,LD50 at 72 h [3]: > 4000 mg/kg
Cc1ccc2c(=O)c3c(oc2c1)CCC(C(=O)Nc1ccccc1C(=O)O)C3 (stereo not drawn) [drawing 26],–,–,LD50 at 72 h [3]: > 4000 mg/kg
